Results taken from publication PMC10770036, “Novel dual inhibitors of PARP and HDAC induce intratumoral STING-mediated antitumor immunity in triple-negative breast cancer” (Cell Death & Disease, 2024).

Tested on: MDA-MB-436, MDA-MB-231, and 4T1 cell-derived xenografts
Assay: Antitumor effect in tumor-bearing mice
Format: in vivo
Details: B102 15 mg/kg or B302 50 mg/kg, intraperitoneal, once daily, versus vehicle
Description: MDA-MB-436, MDA-MB-231, and 4T1 cells were orthotopically injected into the fat pads of 6- to 7-week-old female NOD-Prkdc^scid Il2rg^em1Smoc (M-NSG), BALB/c nude and BALB/c mice, respectively. Fourteen 6-week-old female MMTV-PyMT mice were divided into two groups. The […] in each group were littermates. All animal procedures were approved by the Institutional Animal Care and Use Committee at Shenzhen University.
MDA-MB-436 cells (5 × 10^6) were suspended in PBS and Matrigel (Corning) at a 1:1 ratio and orthotopically injected into the fat pads of 6- to 7-week-old female NOD-Prkdc^scid Il2rg^em1Smoc (M-NSG) mice from the Shanghai Model Organisms Center, Inc. MDA-MB-231 cells (5 × 10^6) were suspended in PBS orthotopically injected into the fat pads of 6- to 7-week-old female BALB/c nude mice from the Shanghai Model Organisms Center, Inc. 4T1 cells (1 × 10^6) were suspended in PBS and injected into the fat pads of 6- to 7-week-old […] BALB/c mice from GemPharmatech Co., Ltd. When the tumor size reached 100 mm^3, the mice were randomly divided into three treatment groups without blinding: B102 (15 mg/kg), B302 (50 mg/kg) or vehicle [10% N,N-dimethylacetamide (DMAC, Sangon Biotech) and 6% polyethylene glycol 12-hydroxystearate (Solutol HS-15, MedChem Express, Monmouth Junction, NJ, USA) in saline] treatment via an intraperitoneal injection once daily. […]

Q: With Nc1cc(F)ccc1NC(=O)/C=C/c1ccc(CN2CCN(C(=O)c3cc(Cc4n[nH]c(=O)c5ccccc45)ccc3F)CC2)cc1 [Compound B102] as the compound, how does the tumor growth read?
A: Its tumor growth is “robust inhibition of tumor growth at low doses”.
